In the NIST ThermoML archive (doi:10.1016/j.fluid.2017.10.003) one finds viscosity data, which are given here for three compounds.

Structures are written as SMILES. Numbers after ± are expanded uncertainties.

The conditions of the data set: 101.33 kPa, Liquid.

`CCCC(=O)[O-].[NH3+]CCO` [2-hydroxy ethylammonium butanoate]: the viscosity (in general, the resistance of a fluid to flow) is listed as 2619 mPa·s (293.15 K); 1796 mPa·s (298.15 K); 1260 mPa·s (303.15 K); 904.36 mPa·s (308.15 K); 596.88 mPa·s (313.15 K); 445.06 ± 200 mPa·s (318.15 K). The viscosity is given as 335.81 ± 130 mPa·s (323.15 K); 256.28 ± 85 mPa·s (328.15 K); 199.67 ± 56 mPa·s (333.15 K); 153.8 ± 35 mPa·s (338.15 K); 122.53 ± 22 mPa·s (343.15 K); 98.65 ± 15 mPa·s (348.15 K). For the same compound, the viscosity is recorded as 80.46 ± 11 mPa·s (353.15 K), 66.2 ± 8.7 mPa·s (358.15 K) and 53.33 ± 8 mPa·s (363.15 K).

For the compound `CC(=O)[O-].[NH3+]CCO` [2-hydroxyethylammonium acetate], the viscosity reads like this: (293.15 K) 3073 mPa·s; (298.15 K) 1974 mPa·s; (303.15 K) 1306 mPa·s; (308.15 K) 896.3 mPa·s; (313.15 K) 624.5 mPa·s; (318.15 K) 363.72 ± 150 mPa·s. In addition, the viscosity by setting is: (323.15 K) 271.13 ± 93 mPa·s; (328.15 K) 203.65 ± 58 mPa·s; (333.15 K) 159.15 ± 37 mPa·s; (338.15 K) 123.69 ± 23 mPa·s; (343.15 K) 98.5 ± 14 mPa·s; (348.15 K) 79.76 ± 8.3 mPa·s. Also, the viscosity by setting is: (353.15 K) 65.27 ± 5.6 mPa·s; (358.15 K) 52.72 ± 4.6 mPa·s; (363.15 K) 43.69 ± 5 mPa·s.

As to `NCCO.O=CO` [2-hydroxyethylammonium formate], the viscosity reads like this: (293.15 K) 129 ± 50 mPa·s; (298.15 K) 98.49 ± 27 mPa·s; (303.15 K) 71.9 ± 11 mPa·s; (308.15 K) 56.34 ± 2.8 mPa·s; (313.15 K) 44.88 ± 4.3 mPa·s; (318.15 K) 36.53 ± 3.5 mPa·s. In addition, the viscosity is given as 30.1 ± 2.9 mPa·s (323.15 K); 24.92 ± 2.4 mPa·s (328.15 K); 21 ± 2.1 mPa·s (333.15 K); 18.98 ± 1.9 mPa·s (338.15 K); 16.3 ± 1.6 mPa·s (343.15 K); 13.96 ± 1.4 mPa·s (348.15 K). The viscosity (353.15 K) is given as 12.1 ± 1.3 mPa·s, the viscosity (358.15 K) is given as 10.57 ± 1.2 mPa·s and the viscosity (363.15 K) turned out to be 9.3 ± 1.1 mPa·s.
